{
  "source": "the supplement of paper PMC10307832",
  "assay_in_all_cases": "relative viability (nuclei count vs DMSO), 5 days (fraction); higher = more cells survive",
  "key": {"201T": {"test_system": "201T", "how_it_was_run": "(§1)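 Lung cancer cell lines were seeded in 1536-well plates and dosed by pin tool the next day, with either a single drug or a fixed anchor-drug dose combined with five library-drug doses (not always all listed) spaced in √10 steps. Five days later, one step fixed the cells and stained their nuclei (final 0.05% Triton X-100, 1% formaldehyde, 1 ug/ml Hoechst), and nuclei were counted on 4× images. Relative viability is the nuclei count in treated wells divided by the count in vehicle wells, and each value is the median of duplicate plates.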"}, "COR-L 105": {"test_system": "COR-L 105", "how_it_was_run": "as §1"}, "COR-L23": {"test_system": "COR-L23", "how_it_was_run": "as §1"}, "EMC-BAC-2": {"test_system": "EMC-BAC-2", "how_it_was_run": "as §1"}, "HCC-15": {"test_system": "HCC-15", "how_it_was_run": "as §1"}, "HCC-366": {"test_system": "HCC-366", "how_it_was_run": "as §1"}, "LC-2-ad": {"test_system": "LC-2-ad", "how_it_was_run": "as §1"}, "NCI-H1437": {"test_system": "NCI-H1437", "how_it_was_run": "as §1"}, "NCI-H1755": {"test_system": "NCI-H1755", "how_it_was_run": "as §1"}, "NCI-H1792": {"test_system": "NCI-H1792", "how_it_was_run": "as §1"}, "NCI-H1915": {"test_system": "NCI-H1915", "how_it_was_run": "as §1"}, "NCI-H2009": {"test_system": "NCI-H2009", "how_it_was_run": "as §1"}, "NCI-H2023": {"test_system": "NCI-H2023", "how_it_was_run": "as §1"}, "NCI-H2347": {"test_system": "NCI-H2347", "how_it_was_run": "as §1"}, "NCI-H23": {"test_system": "NCI-H23", "how_it_was_run": "as §1"}, "NCI-H650": {"test_system": "NCI-H650", "how_it_was_run": "as §1"}, "PC-14": {"test_system": "PC-14", "how_it_was_run": "as §1"}},
  "data": [
    {"smiles": "Nc1cccc2c1CN(C1CCC(=O)NC1=O)C2=O", "note": "(stereo unspecified) [Lenalidomide] + CC(C)C[C@H](NC(=O)[C@H](Cc1ccccc1)NC(=O)c1cnccn1)B(O)O [Bortezomib] (partner 0.002 µM)", "values": [
      {"measurement": "relative viability", "setting": "201T; first compound 0.253 µM", "result": 1.07},
      {"measurement": "relative viability", "setting": "201T; first compound 0.8 µM", "result": 0.553},
      {"measurement": "relative viability", "setting": "201T; first compound 2.53 µM", "result": 1.09},
      {"measurement": "relative viability", "setting": "201T; first compound 8 µM", "result": 1.11},
      {"measurement": "relative viability", "setting": "COR-L 105; first compound 0.253 µM", "result": 0.792},
      {"measurement": "relative viability", "setting": "COR-L 105; first compound 0.8 µM", "result": 0.824},
      {"measurement": "relative viability", "setting": "COR-L 105; first compound 2.53 µM", "result": 0.863},
      {"measurement": "relative viability", "setting": "COR-L 105; first compound 8 µM", "result": 0.797},
      {"measurement": "relative viability", "setting": "COR-L23; first compound 0.253 µM", "result": 0.994},
      {"measurement": "relative viability", "setting": "COR-L23; first compound 0.8 µM", "result": 1.11},
      {"measurement": "relative viability", "setting": "COR-L23; first compound 2.53 µM", "result": 1.07},
      {"measurement": "relative viability", "setting": "COR-L23; first compound 8 µM", "result": 1.17},
      {"measurement": "relative viability", "setting": "EMC-BAC-2; first compound 0.253 µM", "result": 1.04},
      {"measurement": "relative viability", "setting": "EMC-BAC-2; first compound 0.8 µM", "result": 0.857},
      {"measurement": "relative viability", "setting": "EMC-BAC-2; first compound 2.53 µM", "result": 1.15},
      {"measurement": "relative viability", "setting": "EMC-BAC-2; first compound 8 µM", "result": 0.913},
      {"measurement": "relative viability", "setting": "HCC-15; first compound 0.253 µM", "result": 1.02},
      {"measurement": "relative viability", "setting": "HCC-15; first compound 2.53 µM", "result": 1.34},
      {"measurement": "relative viability", "setting": "HCC-15; first compound 8 µM", "result": 0.959},
      {"measurement": "relative viability", "setting": "HCC-366; first compound 0.253 µM", "result": 0.985},
      {"measurement": "relative viability", "setting": "HCC-366; first compound 0.8 µM", "result": 1.03},
      {"measurement": "relative viability", "setting": "HCC-366; first compound 2.53 µM", "result": 1.08},
      {"measurement": "relative viability", "setting": "HCC-366; first compound 8 µM", "result": 1.05},
      {"measurement": "relative viability", "setting": "LC-2-ad; first compound 0.253 µM", "result": 0.979},
      {"measurement": "relative viability", "setting": "LC-2-ad; first compound 0.8 µM", "result": 1.04},
      {"measurement": "relative viability", "setting": "LC-2-ad; first compound 2.53 µM", "result": 1.03},
      {"measurement": "relative viability", "setting": "LC-2-ad; first compound 8 µM", "result": 1.21},
      {"measurement": "relative viability", "setting": "NCI-H1437; first compound 0.253 µM", "result": 0.523},
      {"measurement": "relative viability", "setting": "NCI-H1437; first compound 0.8 µM", "result": 0.571},
      {"measurement": "relative viability", "setting": "NCI-H1437; first compound 2.53 µM", "result": 0.95},
      {"measurement": "relative viability", "setting": "NCI-H1437; first compound 8 µM", "result": 0.501},
      {"measurement": "relative viability", "setting": "NCI-H1755; first compound 0.253 µM", "result": 0.855},
      {"measurement": "relative viability", "setting": "NCI-H1755; first compound 0.8 µM", "result": 0.854},
      {"measurement": "relative viability", "setting": "NCI-H1755; first compound 2.53 µM", "result": 0.947},
      {"measurement": "relative viability", "setting": "NCI-H1755; first compound 8 µM", "result": 0.913},
      {"measurement": "relative viability", "setting": "NCI-H1792; first compound 0.253 µM", "result": 1},
      {"measurement": "relative viability", "setting": "NCI-H1792; first compound 0.8 µM", "result": 0.773},
      {"measurement": "relative viability", "setting": "NCI-H1792; first compound 2.53 µM", "result": 0.96},
      {"measurement": "relative viability", "setting": "NCI-H1792; first compound 8 µM", "result": 0.964},
      {"measurement": "relative viability", "setting": "NCI-H1915; first compound 0.253 µM", "result": 0.985},
      {"measurement": "relative viability", "setting": "NCI-H1915; first compound 0.8 µM", "result": 0.69},
      {"measurement": "relative viability", "setting": "NCI-H1915; first compound 2.53 µM", "result": 1.06},
      {"measurement": "relative viability", "setting": "NCI-H1915; first compound 8 µM", "result": 0.952},
      {"measurement": "relative viability", "setting": "NCI-H2009; first compound 0.253 µM", "result": 0.929},
      {"measurement": "relative viability", "setting": "NCI-H2009; first compound 0.8 µM", "result": 1.02},
      {"measurement": "relative viability", "setting": "NCI-H2009; first compound 2.53 µM", "result": 1.22},
      {"measurement": "relative viability", "setting": "NCI-H2009; first compound 8 µM", "result": 1.01},
      {"measurement": "relative viability", "setting": "NCI-H2023; first compound 0.253 µM", "result": 0.954},
      {"measurement": "relative viability", "setting": "NCI-H2023; first compound 0.8 µM", "result": 1.08},
      {"measurement": "relative viability", "setting": "NCI-H2023; first compound 2.53 µM", "result": 1.08},
      {"measurement": "relative viability", "setting": "NCI-H2023; first compound 8 µM", "result": 0.744},
      {"measurement": "relative viability", "setting": "NCI-H2347; first compound 0.253 µM", "result": 1.1},
      {"measurement": "relative viability", "setting": "NCI-H2347; first compound 0.8 µM", "result": 0.904},
      {"measurement": "relative viability", "setting": "NCI-H2347; first compound 2.53 µM", "result": 0.979},
      {"measurement": "relative viability", "setting": "NCI-H2347; first compound 8 µM", "result": 0.435},
      {"measurement": "relative viability", "setting": "NCI-H23; first compound 0.253 µM", "result": 1.12},
      {"measurement": "relative viability", "setting": "NCI-H23; first compound 0.8 µM", "result": 1.03},
      {"measurement": "relative viability", "setting": "NCI-H23; first compound 2.53 µM", "result": 1.3},
      {"measurement": "relative viability", "setting": "NCI-H23; first compound 8 µM", "result": 0.9},
      {"measurement": "relative viability", "setting": "NCI-H650; first compound 0.253 µM", "result": 0.854},
      {"measurement": "relative viability", "setting": "NCI-H650; first compound 2.53 µM", "result": 0.893},
      {"measurement": "relative viability", "setting": "NCI-H650; first compound 8 µM", "result": 0.577},
      {"measurement": "relative viability", "setting": "PC-14; first compound 0.253 µM", "result": 0.779},
      {"measurement": "relative viability", "setting": "PC-14; first compound 0.8 µM", "result": 0.802},
      {"measurement": "relative viability", "setting": "PC-14; first compound 2.53 µM", "result": 0.905},
      {"measurement": "relative viability", "setting": "PC-14; first compound 8 µM", "result": 0.854}
    ]}
  ]
}
